Source: patent publication EP4463162B1, “CONNEXIN 43 FOR USE IN TREATING BRCA1/2-MUTATED CANCER” (Fundación Profesor Novoa Santos, priority 2022, dated 2023)
Where two headings read alike, the source gives them in different places.

Experiments:
[1] = tested on: Cx43_HCC1937 cells; test: 48 h olaparib dose-response curve, cell viability; assay type: cell-based; conditions: Homo sapiens
[2] = tested on: RAD51 and 53BP1; test: RAD51 and 53BP1 immunofluorescence; assay type: cell-based, human; conditions: olaparib 100 µM, 96 h
Experimental: (§1) 2 000-10 000 cells were plated on glass coverslips (Thermo Fisher Scientific) previously coated with poly-D-lysine hydrobromide (Sigma-Aldrich) and cultured until they were approximately 80 % confluent. They were washed with PBS, fixed with 4 % paraformaldehyde (PFA, Sigma-Aldrich) in PBS for 15 min at room temperature and rinsed twice with PBS. Next, cells were incubated with 0.1 M glycine (Sigma-Aldrich) in distilled water to quench PFA for 10 min at room temperature, and then their membranes were permeabilized with 0.2 % Triton X-100 (Sigma-Aldrich) in PBS for 10 min at room temperature. After two 5 min PBS washes, potential nonspecific antibody binding sites were blocked with 1 % bovine serum albumin (BSA; Sigma-Aldrich) diluted in PBST (PBS+0.1 % Tween 20; Sigma-Aldrich) for 30 min at room temperature. Cells were incubated overnight at 4 °C in the dark with primary antibody (see references in Table 3) diluted in 1 % BSA in PBST. The next day, cells were rinsed three times in PBS for 10 min each, and then incubated 1 h at room temperature in the dark with secondary antibody (see references in Table 3) diluted in 1 % BSA in PBST. After that, they were washed three times with PBS for 5 min each, and their nuclei were stained with 1 µg/mL Hoechst (Invitrogen, Thermo Fisher Scientific) diluted in PBS for 10 min. […]

[3] = tested on: γH2AX (p-Ser139); test: Western blot and immunofluorescence against γH2AX; assay type: cell-based, human; conditions: Cx43_HCC1937, 50/100 µM olaparib, 96 h, vs basal condition and same treatments in EV_HCC1937
Experimental: as §1, with “PBST.” for “PBST. The next day, cells were rinsed three times in PBS for 10 min each, and then incubated 1 h at room temperature in the dark with secondary antibody (see references in Table 3) diluted in 1 % BSA in PBST. After that, they were washed three times with PBS for 5 min each, and their nuclei were stained with 1 µg/mL Hoechst (Invitrogen, Thermo Fisher Scientific) diluted in PBS for 10 min.”
Protein extracts were mixed with loading buffer, which consisted of 10 % (v/v) β-mercaptoethanol (Sigma-Aldrich), 10 % SDS, 50 % (v/v) glycerol, 200 mM Tris-HCl pH 6.8 and 0.1 % bromophenol blue (Sigma-Aldrich). […] Ponceau staining and western blot images were analysed and their band intensities quantitated with Image J software.

[4] = tested on: HCC1937 spheroids; test: Three-dimensional tumour spheroid proliferation (spheroid area); assay type: cell-based, human; conditions: for spheroid size, Cx43-restituted smaller than EV counterparts: after 8 days, 3000 initial cell density
Experimental: The bottom of 96-well flat bottom microplates (Greiner Bio-One) was coated with 1.5 % solution of UltraPure Low Melting Point Agarose (Invitrogen, Thermo Fisher Scientific). Agarose concave bottoms provide non-adhesive conditions and increase cell contacts. 100-200 µL of single-cell suspensions were plated on top of the agarose diluted in their respective media supplemented with 3.5 % Matrigel Matrix Basement Membrane Growth Factor Reduced (Corning) and 5 ng/mL human recombinant EGF (Sigma-Aldrich). Afterwards, plates were incubated under standard cell culture conditions and spheroids were monitored from day 2 onwards by optical microscopy.
Uniform-sized spheroids were produced by plating 3000 EV and Cx43_HCC1937 cells under ultra-low attachment conditions, as well as 5000 Cx43_HCC1937 cells in parallel to account for the expected anti-proliferative effect of Cx43 in untreated tumour cells (day -4) (Figure 7). […] Spheroids were individually tracked during this time and their size was registered every 48 h.
Afterwards, spheroid area measurements were pooled for each condition and EV spheroids were compared against Cx43_HCC1937 spheroids, either those plated at 3000 or 5000 initial cell densities.
Next, Cx43 involvement in the TNBC pathogenesis was studied under more physiological approaches, namely 3D spheroid culture (Figure 10.B) and Anoikis-inducing conditions (Figure 10.C). 3D spheroid culture (Figure 10.B) of HCC1937 cells for 12 days further corroborated the reduction in proliferation determined in 2D culture (Figure 10.A) resulting from Cx43 restoration.

[5] = tested on: cleaved caspase 3, PARP-1; conditions: 50 and 100 µM olaparib
Experimental: Protein extracts were mixed with loading buffer, which consisted of 10 % (v/v) β-mercaptoethanol (Sigma-Aldrich), 10 % SDS, 50 % (v/v) glycerol, 200 mM Tris-HCl pH 6.8 and 0.1 % bromophenol blue (Sigma-Aldrich). They were boiled at 95 °C for 8 min and 20-30 µg protein were loaded into 8, 10 or 15 % acrylamide/bis-acrylamide self-made gels, depending on the molecular weight of the target protein/s to investigate. Gels were run at 80 V for approximately 2 h using a Mini-PROTEAN Tetra electrophoresis system (BioRad), and then transferred to methanol-preactivated polyvinylidene fluoride (PVDF) membranes (Millipore) at 100 V and 4 °C for 1-1.5 h with a Mini Trans-Blot Electrophoretic Transfer Cell (BioRad). Afterwards, membranes with the transferred proteins were stained with ATX Ponceau S red staining solution (Sigma-Aldrich) for 10 min at room temperature, photographed in an Amersham Imager 600 (GE Healthcare) and unstained with distilled water. They were then blocked for 1 h at room temperature with 5 % skim milk (Sigma-Aldrich) diluted in TBST buffer (Tris-buffered saline TBS composed of 20 mM Tris and 150 mM NaCl, supplemented with 0.05 % (v/v) Tween-20, Sigma-Aldrich) with shaking. […] Ponceau staining and western blot images were analysed and their band intensities quantitated with Image J software.

In the case of `O=C(c1cc(Cc2n[nH]c(=O)c3ccccc23)ccc1F)N1CCN(C(=O)C2CC2)CC1` [Olaparib, olaparib], the IC50 [1] is reported as 350 µM, the 53BP1 foci ([2]; EV and Cx43_HCC1937) is reported as “seemed to rise upon olaparib treatment in both cell lines alike” and the RAD51 foci ([2]; EV vs Cx43_HCC1937) is reported as “increased just in EV_HCC1937 cells”. The “γH2AX (p-Ser139)” value [3] was “significant γH2AX increase”, the spheroid appearance ([4]; Cx43_HCC1937 spheroids (3000 and 5000), 8 days of 600 µM olaparib, vs well-defined EV_HCC1937 spheroids) was “almost non-existent” and the “spheroid size, Cx43-restituted smaller than EV counterparts” value (“spheroid size” below) ([4]; olaparib 200 µM) was 41.7%. For the same compound, the “spheroid size” value ([4]; olaparib 400 µM) was 29.68%, the “spheroid size” value ([4]; olaparib 600 µM) was 12.57% and the PARP-1 cleavage ([5]; Cx43_HCC1937, 96 h) was “strong PARP-1 cleavage”. For the same compound, the PARP-1 cleavage ([5]; EV_HCC1937, 96 h) was “low cleavage levels”.
